Tests used:
[1] = test system: C. glutamicum Cz034; experiment: Propionate tolerance of Cz034 in CGXII minimal medium (growth curve); type: cell-based, Corynebacterium glutamicum
Procedure: Propionate tolerance was first evaluated using Cz034 in CGXII minimal medium to evaluate the highest propionate concentration for ALE. The lag phase increased as the propionate concentration increased, and no growth was observed when the propionate concentration was over 8,000 mg/L (Extended Data FIG. S11a, b). Then, ALE was applied to improve propionate tolerance and germicidin production in Cz12 by repeatedly growing the strains in increasing concentrations of propionate until we reached 8,000 mg/L (Extended Data FIG. S12). After two months of evolution, 563 single colonies were picked up from plates. Most of them grew faster than the initial strain (Extended Data FIG. S13a, b, c, d). […] To clarify whether the increased germicidin production improved methylmalonyl-CoA utilization, germicidin titer was measured on evolved strains.
Colony PCR. Pick up colonies from plate and cultivate in BHI medium (30° C., 200 rpm) overnight (around 14-16 h). Prepare digestion solution (120 μL zymolase (E1005, ZYMO RESEARCH) and 2500 μL PBS pH=7.2) for 96 reactions. Take 3-5 μL overnight culture into 20 μL digestion solution, 30° C. for 1 h. Add 3-5 μL dimethyl sulfoxide (DMSO), then 98° C. for 10 min. Take 2 μL for 50 μL PCR reaction. Growth curve measurement. Various cells were pre-cultivated in BHI liquid medium (30° C., 200 rpm) overnight. […] Growth curve was measured by SpectraMaX M2e at 30° C.

[2] = target: T1, hexokinase (HK2) (Homo sapiens, UniProt P52789); conditions: literature reference 36; cited from earlier work
T1 sequence (P52789 1-917): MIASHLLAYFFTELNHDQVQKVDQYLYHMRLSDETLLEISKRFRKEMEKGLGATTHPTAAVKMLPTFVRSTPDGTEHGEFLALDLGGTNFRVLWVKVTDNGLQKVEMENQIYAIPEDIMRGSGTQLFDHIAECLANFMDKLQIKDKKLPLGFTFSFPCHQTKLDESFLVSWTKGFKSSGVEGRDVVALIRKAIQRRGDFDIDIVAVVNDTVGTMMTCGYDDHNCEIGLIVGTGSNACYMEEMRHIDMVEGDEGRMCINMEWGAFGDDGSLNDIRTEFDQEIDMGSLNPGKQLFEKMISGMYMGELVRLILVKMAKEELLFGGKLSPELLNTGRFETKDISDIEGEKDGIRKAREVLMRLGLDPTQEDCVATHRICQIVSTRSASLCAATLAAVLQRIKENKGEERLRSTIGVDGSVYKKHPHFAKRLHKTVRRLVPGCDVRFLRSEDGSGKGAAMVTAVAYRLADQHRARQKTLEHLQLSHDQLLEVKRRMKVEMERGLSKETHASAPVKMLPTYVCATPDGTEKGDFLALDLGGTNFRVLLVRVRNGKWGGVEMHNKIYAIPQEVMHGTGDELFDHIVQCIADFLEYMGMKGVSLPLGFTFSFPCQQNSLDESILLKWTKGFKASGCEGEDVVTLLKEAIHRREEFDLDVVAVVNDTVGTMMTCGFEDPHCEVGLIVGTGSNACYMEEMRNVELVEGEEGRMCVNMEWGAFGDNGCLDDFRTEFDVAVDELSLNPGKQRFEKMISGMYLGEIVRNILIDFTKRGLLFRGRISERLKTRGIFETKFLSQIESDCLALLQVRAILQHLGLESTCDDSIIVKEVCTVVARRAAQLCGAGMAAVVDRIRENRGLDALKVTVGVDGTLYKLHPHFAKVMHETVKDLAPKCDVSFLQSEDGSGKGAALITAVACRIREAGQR

For CCC(=O)O [propionate], the “propionate concentration above which no growth was observed” value [1] was “over 8,000 mg/L”.

In the case of germicidin, the “IC50 on hexokinase (HK2)” value [2] is given as 780 µg/mL.

Source: patent publication US20240425891A1, “Host cells and methods for improved polyketide production using methylmalonyl-CoA-dependent polyketide synthase (PKS)” (THE REGENTS OF THE UNIVERSITY OF CALIFORNIA, priority 2023, published 2024)
